pIC50: −log10 of the molar value.
Key:
Assay type in all cases: biochemical
[1] = target: T1, TXK (Homo sapiens, UniProt P42681); assay: TXK IC50 kinase inhibition assay
T1 sequence (P42681 1-527): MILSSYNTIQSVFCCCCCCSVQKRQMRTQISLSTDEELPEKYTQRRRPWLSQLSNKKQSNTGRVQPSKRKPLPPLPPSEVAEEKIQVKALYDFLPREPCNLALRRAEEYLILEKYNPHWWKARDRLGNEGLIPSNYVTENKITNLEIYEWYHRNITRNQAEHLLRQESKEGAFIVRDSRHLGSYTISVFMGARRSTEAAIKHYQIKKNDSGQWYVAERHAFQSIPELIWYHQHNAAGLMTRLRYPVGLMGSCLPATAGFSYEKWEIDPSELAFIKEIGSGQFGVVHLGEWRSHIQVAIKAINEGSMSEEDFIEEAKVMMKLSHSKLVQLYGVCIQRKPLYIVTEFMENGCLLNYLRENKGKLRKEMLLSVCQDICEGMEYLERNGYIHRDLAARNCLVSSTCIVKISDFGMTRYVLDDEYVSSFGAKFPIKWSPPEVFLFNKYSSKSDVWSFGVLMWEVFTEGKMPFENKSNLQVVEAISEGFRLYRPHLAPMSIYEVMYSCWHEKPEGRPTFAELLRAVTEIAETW

[2] = target: T2, JAK3 (Homo sapiens, UniProt P52333); assay: JAK3 IC50 kinase inhibition assay
T2 sequence (P52333 1-1124): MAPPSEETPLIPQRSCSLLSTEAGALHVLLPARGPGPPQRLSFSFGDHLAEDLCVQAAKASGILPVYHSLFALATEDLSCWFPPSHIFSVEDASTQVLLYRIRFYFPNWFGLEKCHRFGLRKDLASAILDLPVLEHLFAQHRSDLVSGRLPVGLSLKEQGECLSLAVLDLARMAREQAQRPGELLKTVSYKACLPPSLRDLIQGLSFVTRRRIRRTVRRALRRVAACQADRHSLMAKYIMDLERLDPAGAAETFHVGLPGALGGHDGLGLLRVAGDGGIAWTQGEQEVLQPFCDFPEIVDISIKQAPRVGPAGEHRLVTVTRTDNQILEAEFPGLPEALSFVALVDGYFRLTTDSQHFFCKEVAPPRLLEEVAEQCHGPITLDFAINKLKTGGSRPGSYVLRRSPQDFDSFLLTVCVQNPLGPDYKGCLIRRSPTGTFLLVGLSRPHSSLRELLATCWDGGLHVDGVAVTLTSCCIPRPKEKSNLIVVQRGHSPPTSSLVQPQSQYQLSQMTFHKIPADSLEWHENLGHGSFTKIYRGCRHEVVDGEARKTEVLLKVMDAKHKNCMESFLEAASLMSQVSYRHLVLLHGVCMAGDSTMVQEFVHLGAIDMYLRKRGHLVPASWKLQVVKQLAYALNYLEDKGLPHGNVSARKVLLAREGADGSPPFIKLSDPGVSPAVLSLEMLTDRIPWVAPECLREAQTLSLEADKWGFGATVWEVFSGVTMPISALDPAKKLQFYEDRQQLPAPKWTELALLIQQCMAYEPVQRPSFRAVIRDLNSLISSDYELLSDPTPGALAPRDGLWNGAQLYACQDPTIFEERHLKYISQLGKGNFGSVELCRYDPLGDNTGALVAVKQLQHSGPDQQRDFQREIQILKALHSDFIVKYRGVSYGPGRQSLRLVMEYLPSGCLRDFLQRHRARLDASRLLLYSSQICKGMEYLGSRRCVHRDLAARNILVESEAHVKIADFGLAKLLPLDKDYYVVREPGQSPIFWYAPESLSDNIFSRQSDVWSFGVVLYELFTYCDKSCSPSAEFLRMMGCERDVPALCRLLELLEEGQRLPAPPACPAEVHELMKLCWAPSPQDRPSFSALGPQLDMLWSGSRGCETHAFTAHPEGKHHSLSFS

[3] = target: T3, ITK (Homo sapiens, UniProt Q08881); assay: ITK IC50 kinase inhibition assay
T3 sequence (Q08881 1-620): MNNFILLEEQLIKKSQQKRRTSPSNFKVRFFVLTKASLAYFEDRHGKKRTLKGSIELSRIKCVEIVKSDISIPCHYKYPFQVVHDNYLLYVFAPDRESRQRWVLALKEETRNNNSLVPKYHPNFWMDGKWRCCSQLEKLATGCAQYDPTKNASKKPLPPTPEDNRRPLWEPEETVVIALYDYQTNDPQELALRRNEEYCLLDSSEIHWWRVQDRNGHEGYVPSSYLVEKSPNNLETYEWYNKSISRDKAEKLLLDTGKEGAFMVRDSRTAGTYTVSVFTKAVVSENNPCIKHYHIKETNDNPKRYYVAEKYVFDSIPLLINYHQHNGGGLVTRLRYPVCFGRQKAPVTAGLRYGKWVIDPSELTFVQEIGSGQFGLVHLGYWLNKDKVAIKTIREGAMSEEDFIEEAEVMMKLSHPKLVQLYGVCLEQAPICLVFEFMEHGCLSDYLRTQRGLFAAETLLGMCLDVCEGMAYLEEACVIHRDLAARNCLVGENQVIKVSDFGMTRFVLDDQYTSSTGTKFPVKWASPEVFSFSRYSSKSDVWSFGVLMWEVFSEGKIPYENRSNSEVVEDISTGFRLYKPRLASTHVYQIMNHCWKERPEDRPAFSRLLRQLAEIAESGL

[4] = target: BTK (Homo sapiens, UniProt Q06187); assay: BTK IC50 kinase inhibition assay
Chain of BTK (Q06187 whole entry): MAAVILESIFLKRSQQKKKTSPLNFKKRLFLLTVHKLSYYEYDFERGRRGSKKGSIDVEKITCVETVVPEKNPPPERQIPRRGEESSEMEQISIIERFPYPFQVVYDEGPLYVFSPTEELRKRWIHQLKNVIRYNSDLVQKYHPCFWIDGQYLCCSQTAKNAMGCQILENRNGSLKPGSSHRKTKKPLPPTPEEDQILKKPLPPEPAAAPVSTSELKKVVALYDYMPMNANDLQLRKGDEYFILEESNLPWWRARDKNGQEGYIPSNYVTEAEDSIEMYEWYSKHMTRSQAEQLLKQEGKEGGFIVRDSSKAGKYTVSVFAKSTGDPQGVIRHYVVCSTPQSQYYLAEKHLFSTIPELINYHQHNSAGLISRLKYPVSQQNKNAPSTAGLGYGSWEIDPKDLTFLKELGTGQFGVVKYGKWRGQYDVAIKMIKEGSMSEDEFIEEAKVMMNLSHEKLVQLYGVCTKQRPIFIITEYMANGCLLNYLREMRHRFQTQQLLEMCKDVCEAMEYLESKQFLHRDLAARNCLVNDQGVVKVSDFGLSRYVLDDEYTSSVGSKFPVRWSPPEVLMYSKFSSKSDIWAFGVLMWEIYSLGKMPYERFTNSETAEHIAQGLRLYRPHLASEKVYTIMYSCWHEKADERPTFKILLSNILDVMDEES

| Structure (SMILES) | pIC50 [1] | pIC50 [2] | pIC50 [3] | pIC50 [4] |
| --- | --- | --- | --- | --- |
| C=CC(=O)N1CCC[C@@H](n2nc(-c3ccc(Oc4ccccc4)cc3)c3cnccc32)C1 [Compound A23, (R)-1-(3-(3-(4-phenoxyphenyl)-H-pyrazolo[4,3-c]pyridin-1-yl)piperidin-1-yl)prop-2-en-1-one] | > 7.00 | < 6.30 | < 6.30 | > 7.00 |
| C=CC(=O)N1CCC[C@H]1Cn1nc(-c2ccc(Oc3ccccc3)cc2)c2cncc(C#N)c21 [Compound A74, (S)-1-((1-Acryloylpyrrolidin-2-yl)methyl)-3-(4-phenoxyphenyl)-1H-pyrazolo[4,3-c]pyridine-7-carbonitrile] | < 6.30 | < 6.30 | < 6.30 | > 7.00 |
| C=CC(=O)NCCn1nc(-c2ccc(Oc3ccccc3)cc2)c2cncnc21 [Compound A42, N-(2-(3-(4-phenoxyphenyl)-1H-pyrazolo[3,4-d]pyrimidin-1-yl)ethyl)acrylamide] | < 6.30 | < 6.30 | < 6.30 | 6.30 to 7.00 |
| C=CC(=O)N1CCC[C@@]1(C)Cn1nc(-c2ccc(Oc3ccccc3)cc2F)c2cncnc21 [Compound A52, (S)-1-(2-((3-(2-fluoro-4-phenoxyphenyl)-1H-pyrazolo[3,4-d]pyrimidin-1-yl)methyl)-2-methylpyrrolidin-1-yl)prop-2-en-1-one] | > 7.00 | < 6.30 | < 6.30 | > 7.00 |
| C=CC(=O)N1CC(F)(F)C[C@H]1Cn1nc(-c2ccc(Oc3ccccc3)cc2)c2cncnc21 [Compound A41, (S)-1-(4,4-difluoro-2-((3-(4-phenoxyphenyl)-1H-pyrazolo[3,4-d]pyrimidin-1-yl)methyl)pyrrolidin-1-yl)prop-2-en-1-one] | > 7.00 | < 6.30 | < 6.30 | > 7.00 |
| C=CC(=O)N1CCC[C@@H](n2nc(-c3ccc(Oc4ccccc4)cc3)c3cncc(F)c32)C1 [Compound A26, (R)-1-(3-(7-fluoro-3-(4-phenoxyphenyl)-1H-pyrazolo[4,3-c]pyridin-1-yl)piperidin-1-yl)prop-2-en-1-one] | > 7.00 | < 6.30 | < 6.30 | > 7.00 |
| CC#CC(=O)N1CC[C@H]1Cn1nc(-c2ccc(Oc3ccccc3)cc2)c2cncnc21 [Compound A66, (S)-1-(2-((3-(4-phenoxyphenyl)-1H-pyrazolo[3,4-d]pyrimidin-1-yl)methyl)azetidin-1-yl)but-2-yn-1-one] | < 6.30 | < 6.30 | < 6.30 | 6.30 to 7.00 |
| CC#CC(=O)N1CCC[C@@H](n2nc(-c3ccc(Oc4ccccc4)cc3)c3cncnc32)C1 [Compound A16, (R)-1-(3-(3-(4-phenoxyphenyl)-1H-pyrazolo[3,4-d]pyrimidin-1-yl)piperidin-1-yl)but-2-yn-1-one] | < 6.30 | < 6.30 | < 6.30 | < 6.30 |
| C=CC(=O)N1CCC[C@@H](n2nc(-c3ccc(Oc4ccccc4)cc3C#N)c3cncnc32)C1 [Compound A33, (R)-2-(1-(1-acryloylpiperidin-3-yl)-H-pyrazolo[3,4-d]pyrimidin-3-yl)-5-phenoxybenzonitrile] | < 6.30 | < 6.30 | < 6.30 | 6.30 to 7.00 |
| CC#CC(=O)N[C@H]1CC[C@H](n2nc(-c3ccc(Oc4ccccc4)cc3)c3cncnc32)CC1 [Compound A70, N-((1r,4r)-4-(3-(4-phenoxyphenyl)-1H-pyrazolo[3,4-d]pyrimidin-1-yl)cyclohexyl)but-2-ynamide] | < 6.30 | < 6.30 | < 6.30 | < 6.30 |
| COCC#CC(=O)N1CC2(CC(n3nc(-c4ccc(Oc5ccccc5)cc4)c4cncnc43)C2)C1 [Compound A79, 4-Methoxy-1-(6-(3-(4-phenoxyphenyl)-1H-pyrazolo[3,4-d]pyrimidin-1-yl)-2-azaspiro[3.3]heptan-2-yl)but-2-yn-1-one] | > 7.00 | < 6.30 | < 6.30 | > 7.00 |
| C=CC(=O)N1CCC[C@H]1Cn1nc(-c2ccc(Oc3ccccc3)cc2)c2cncc(F)c21 [Compound A27, (S)-1-(2-((7-fluoro-3-(4-phenoxyphenyl)-1H-pyrazolo[4,3-c]pyridin-1-yl)methyl)pyrrolidin-1-yl)prop-2-en-1-one] | > 7.00 | < 6.30 | < 6.30 | > 7.00 |
| CC#CC(=O)N1CCC[C@H]1c1nc(-c2ccc(Oc3ccccc3)cc2)c2cnccn12 [Compound A31, (S)-1-(2-(1-(4-phenoxyphenyl)imidazo[1,5-a]pyrazin-3-yl)pyrrolidin-1-yl)but-2-yn-1-one] | < 6.30 | < 6.30 | < 6.30 | < 6.30 |
| O=C(C#CC1CC1)N1CC2(CC(n3nc(-c4ccc(Oc5ccccc5)cc4)c4cncnc43)C2)C1 [Compound A78, 3-Cyclopropyl-1-(6-(3-(4-phenoxyphenyl)-1H-pyrazolo[3,4-d]pyrimidin-1-yl)-2-azaspiro[3.3]heptan-2-yl)prop-2-yn-1-one] | < 6.30 | < 6.30 | < 6.30 | 6.30 to 7.00 |
| C=CC(=O)N1CCC[C@@H](n2nc(-c3cccc(Oc4ccccc4)c3)c3cncnc32)C1 [Compound A1, (R)-1-(3-(3-(3-phenoxyphenyl)-1H-pyrazolo[3,4-d]pyrimidin-1-yl)piperidin-1-yl)prop-2-en-1-one] | 6.30 to 7.00 | < 6.30 | < 6.30 | > 7.00 |
| C=CC(=O)N1CCC[C@@]1(C)Cn1nc(-c2ccc(Oc3ccccc3)cc2)c2cncnc21 [Compound A45, (S)-1-(2-methyl-2-((3-(4-phenoxyphenyl)-1H-pyrazolo[3,4-d]pyrimidin-1-yl)methyl)pyrrolidin-1-yl)prop-2-en-1-one] | > 7.00 | < 6.30 | < 6.30 | > 7.00 |
| C=CC(=O)N1CCC[C@H]1Cn1nc(-c2ccc(Oc3ccccc3)cc2)c2cncnc21 [Compound A8, (S)-1-(2-((3-(4-phenoxyphenyl)-1H-pyrazolo[3,4-d]pyrimidin-1-yl)methyl)pyrrolidin-1-yl)prop-2-en-1-one] | > 7.00 | < 6.30 | < 6.30 | > 7.00 |
| CC#CC(=O)N1CCC2(CC1)CC(n1nc(-c3ccc(Oc4ccccc4)cc3)c3cncnc31)C2 [Compound A68, 1-(2-(3-(4-phenoxyphenyl)-1H-pyrazolo[3,4-d]pyrimidin-1-yl)-7-azaspiro[3.5]nonan-7-yl)but-2-yn-1-one] | < 6.30 | < 6.30 | < 6.30 | < 6.30 |

Reference: patent US10870652B2, “Compounds and methods for modulating bruton's tyrosine kinase” (CORVUS PHARMACEUTICALS, INC., priority 2016, dated 2020)
